biological target: T1, GLP-1R (Homo sapiens, UniProt P43220); assay: EC20 GLP-1(9-36) PAM cAMP Assay: dose response of compound in the presence of fixed concentration of GLP-1(9-36); assay type: cell-based; conditions: GLP-1R CRE-bla CHO-K1 cells, in presence of fixed concentration of GLP-1(9-36), 30 min at 37° C.
T1 construct: host or cells: CRE-bla CHO-K1
Method: EC20 GLP-1(9-36) PAM cAMP Assay: Dose Response of Compound in the Presence of Fixed Concentration of GLP-1 (9-36).
GLP-1R CRE-bla CHO-K1 cells cultured in growth medium (DMEM-High glucose, 10% dialyzed FBS, 0.1 mM NEAA, 25 mM Hepes, 100 U/mL penicillin/100 μg/mL streptomycin, 5 μg/mL Blasticidin, 600 μg/mL Hygromycin) were trypsinized and plated in suspension into 384 well white flat bottom plates at 5000 cells/well in 12 μL assay buffer (Hanks Balanced Salt solution, 10 mM Hepes, 0.1% BSA, 10 pH 7.4). A 5× compound dose response curve (12-point) was generated in assay buffer containing 1.5 mM IBMX, 4% DMSO. GLP-1(9-36) was diluted to 4.2 μM in assay buffer containing 1.5 mM IBMX and 4% DMSO. The 5× compound dose response was added (3 μL), followed by 0.5 μL of GLP-1(9-36) and cells were incubated for 30 min at 37° C. Direct detection of cAMP was carried out using DiscoveRx HitHunter cAMP kit according to manufacturer's instructions and luminescence was read using a SpectraMax M5 plate reader. Luminescence was converted to total cAMP using a cAMP standard curve and data was analyzed by non-linear regression to determine the EC50 and Emax.

T1 sequence (P43220 24-463): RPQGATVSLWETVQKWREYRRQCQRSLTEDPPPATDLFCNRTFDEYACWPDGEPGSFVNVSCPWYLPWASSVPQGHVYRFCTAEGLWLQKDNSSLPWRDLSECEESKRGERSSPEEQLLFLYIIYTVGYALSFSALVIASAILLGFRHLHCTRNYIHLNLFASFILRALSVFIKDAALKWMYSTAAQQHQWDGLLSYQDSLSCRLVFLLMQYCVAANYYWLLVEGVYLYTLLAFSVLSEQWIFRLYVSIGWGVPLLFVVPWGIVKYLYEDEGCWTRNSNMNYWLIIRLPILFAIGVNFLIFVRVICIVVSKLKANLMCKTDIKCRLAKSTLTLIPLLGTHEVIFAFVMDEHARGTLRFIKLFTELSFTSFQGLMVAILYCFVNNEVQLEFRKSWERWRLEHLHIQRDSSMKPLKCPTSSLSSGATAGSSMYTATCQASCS
T1 sequence (P01275 100-127 partner limits assumed): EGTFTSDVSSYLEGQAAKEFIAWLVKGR

SMILES	EC50 [nM]
CCCC1CCC(C2CC=C(c3cnc(-c4ccc(C[C@H](NC(=O)c5ccc(CC(C)C)s5)C(=O)N5CC(C(=O)O)C5)cc4)nc3)CC2)CC1 (stereo partly drawn) [Compound 32]	< 500
CCCC1CCC(C2CC=C(c3cnc(-c4ccc(C[C@H](NC(=O)c5cc6cc(OC)ccc6[nH]5)C(=O)N5CC(C(=O)O)C5)cc4)nc3)CC2)CC1 (stereo partly drawn) [Compound 33]	500 to 2500
CCCC1CCC(C2CC=C(c3cnc(-c4ccc(C[C@H](NC(=O)c5ccc(C6CC6)s5)C(=O)N5CC(C(=O)O)C5)cc4)nc3)CC2)CC1 (stereo partly drawn) [Compound 34]	< 500
CCCC1CCC(C2CC=C(c3cnc(-c4ccc(C[C@H](NC(=O)c5ccc(C(C)(C)C(F)(F)F)cc5)C(=O)N5CC(C(=O)O)C5)cc4)nc3)CC2)CC1 (stereo partly drawn) [Compound 35]	500 to 2500
CC(C)(C)c1ccc(C(=O)N[C@@H](Cc2ccc(-c3ncc(C4=CCC(C(C)(C)C)CC4)cn3)cc2)C(=O)N2CC(C(=O)O)C2)s1 (stereo partly drawn) [Compound 36]	< 500
CC(C)(C)c1ccc(C(=O)N[C@@H](Cc2ccc(-c3ncc(C4=CCC(C(F)(F)F)CC4)cn3)cc2)C(=O)N2CC(C(=O)O)C2)s1 (stereo partly drawn) [Compound 37]	500 to 2500
CCCCCC1CC=C(c2cnc(-c3ccc(C[C@H](NC(=O)c4ccc(C(C)(C)C)s4)C(=O)N4CC(C(=O)O)C4)cc3)nc2)CC1 (stereo partly drawn) [Compound 38]	500 to 2500
CCCC1CC=C(c2cnc(-c3ccc(C[C@H](NC(=O)c4ccc(C(C)(C)C)s4)C(=O)N4CC(C(=O)O)C4)cc3)nc2)CC1 (stereo partly drawn) [Compound 39]	500 to 2500
CC(C)C1CC=C(c2cnc(-c3ccc(C[C@H](NC(=O)c4ccc(C(C)(C)C)s4)C(=O)N4CC(C(=O)O)C4)cc3)nc2)CC1 (stereo partly drawn) [Compound 40]	500 to 2500
CC(C)(C)c1ccc(C(=O)N[C@@H](Cc2ccc(-c3ncc(C4CCC(C(C)(C)C)CC4)cn3)cc2)C(=O)N2CC(C(=O)O)C2)s1 (stereo partly drawn) [Compound 41]	5000 to 10000
CC1(C)COC2(CC=C(c3cnc(-c4ccc(CC(NC(=O)c5ccc(C(C)(C)C)s5)C(=O)N5CC(C(=O)O)C5)cc4)nc3)CC2)OC1 (stereo not drawn) [Compound 43]	5000 to 10000
CCCCC1CC=C(c2cnc(-c3ccc(C[C@H](NC(=O)c4ccc(C(C)(C)C)s4)C(=O)N4CC(C(=O)O)C4)cc3)nc2)CC1 (stereo partly drawn) [Compound 45]	500 to 2500
CCCC1CCN(C2CC=C(c3cnc(-c4ccc(C[C@H](NC(=O)c5ccc(C(C)(C)C)s5)C(=O)N5CC(C(=O)O)C5)cc4)nc3)CC2)CC1 (stereo partly drawn) [Compound 46]	2500 to 5000
CCCc1ccc(C2CC=C(c3cnc(-c4ccc(C[C@H](NC(=O)c5ccc(C(C)(C)C)s5)C(=O)N5CC(C(=O)O)C5)cc4)nc3)CC2)cc1 (stereo partly drawn) [Compound 47]	< 500
COC1CCC(C2CC=C(c3cnc(-c4ccc(C[C@H](NC(=O)c5ccc(C(C)(C)C)s5)C(=O)N5CC(C(=O)O)C5)cc4)nc3)CC2)CC1 (stereo partly drawn) [Compound 48]	500 to 2500
C[C@@H](NC(=O)[C@H](Cc1ccc(-c2ncc(C3=CC(=O)CC(c4ccccc4)C3)cn2)cc1)NC(=O)c1ccc(C(C)(C)C)s1)C(=O)O (stereo partly drawn) [Compound 49]	5000 to 10000
C[C@@H](NC(=O)[C@H](Cc1ccc(-c2ncc(C3=Cc4ccccc4C3)cn2)cc1)NC(=O)c1ccc(C(C)(C)C)s1)C(=O)O [Compound 50]	500 to 2500
CCC1CC=C(c2cnc(-c3ccc(C[C@H](NC(=O)c4ccc(C(C)(C)C)s4)C(=O)N[C@H](C)C(=O)O)cc3)nc2)CC1 (stereo partly drawn) [Compound 51]	500 to 2500
CCCC1CC=C(c2cnc(-c3ccc(C[C@H](NC(=O)c4ccc(C(C)(C)C)s4)C(=O)N[C@H](C)C(=O)O)cc3)nc2)CC1 (stereo partly drawn) [Compound 52]	500 to 2500
CCCCCC1CC=C(c2cnc(-c3ccc(C[C@H](NC(=O)c4ccc(C(C)(C)C)s4)C(=O)N[C@H](C)C(=O)O)cc3)nc2)CC1 (stereo partly drawn) [Compound 53]	500 to 2500
C[C@@H](NC(=O)[C@H](Cc1ccc(-c2ncc(C3=CCCCC3)cn2)cc1)NC(=O)c1ccc(C(C)(C)C)s1)C(=O)O [Compound 54]	5000 to 10000
CC1CC=C(c2cnc(-c3ccc(C[C@H](NC(=O)c4ccc(C(C)(C)C)s4)C(=O)N[C@H](C)C(=O)O)cc3)nc2)CC1 (stereo partly drawn) [Compound 55]	2500 to 5000
C[C@@H](NC(=O)[C@H](Cc1ccc(-c2ncc(C3=CCC(C(C)(C)C)CC3)cn2)cc1)NC(=O)c1ccc(C(C)(C)C)s1)C(=O)O (stereo partly drawn) [Compound 56]	< 500
C[C@@H](NC(=O)[C@H](Cc1ccc(-c2ncc(C3=CCC(C)(C)CC3)cn2)cc1)NC(=O)c1ccc(C(C)(C)C)s1)C(=O)O [Compound 57]	500 to 2500

SMILES	EC50 [nM]
C[C@@H](NC(=O)[C@H](Cc1ccc(-c2ncc(C3=CC4CC[C@]3(C)C4(C)C)cn2)cc1)NC(=O)c1ccc(C(C)(C)C)s1)C(=O)O [Compound 58]	2500 to 5000
C[C@@H](NC(=O)[C@H](Cc1ccc(-c2ncc(C3=CC(C)(C)CC(C)(C)C3)cn2)cc1)NC(=O)c1ccc(C(C)(C)C)s1)C(=O)O [Compound 59]	< 500
C[C@@H](NC(=O)[C@H](Cc1ccc(-c2ncc(C3=CCC(C)(C)C=C3)cn2)cc1)NC(=O)c1ccc(C(C)(C)C)s1)C(=O)O [Compound 60]	500 to 2500
CC(=O)C1CC=C(c2cnc(-c3ccc(C[C@H](NC(=O)c4ccc(C(C)(C)C)s4)C(=O)N[C@H](C)C(=O)O)cc3)nc2)CC1 (stereo partly drawn) [Compound 61]	< 500
COC(=O)C1CC=C(c2cnc(-c3ccc(C[C@H](NC(=O)c4ccc(C(C)(C)C)s4)C(=O)N[C@H](C)C(=O)O)cc3)nc2)CC1 (stereo partly drawn) [Compound 62]	< 500
C[C@@H](NC(=O)[C@H](Cc1ccc(-c2ncc(C3=CCCC3)cn2)cc1)NC(=O)c1ccc(C(C)(C)C)s1)C(=O)O [Compound 63]	500 to 2500
C[C@@H](NC(=O)[C@H](Cc1ccc(-c2ncc(C3=CCC(NC(=O)OC(C)(C)C)CC3)cn2)cc1)NC(=O)c1ccc(C(C)(C)C)s1)C(=O)O (stereo partly drawn) [Compound 64]	2500 to 5000
C[C@@H](NC(=O)[C@H](Cc1ccc(-c2ncc(C3=CCC(C(F)(F)F)CC3)cn2)cc1)NC(=O)c1ccc(C(C)(C)C)s1)C(=O)O (stereo partly drawn) [Compound 65]	500 to 2500
C[C@@H](NC(=O)[C@H](Cc1ccc(-c2ncc(C3=CCC4(CC3)OCCO4)cn2)cc1)NC(=O)c1ccc(C(C)(C)C)s1)C(=O)O [Compound 66]	2500 to 5000
CCCC1CCC(C2CCC(c3cnc(-c4ccc(C[C@H](NC(=O)c5ccc(C(C)(C)C)s5)C(=O)N[C@H](C)C(=O)O)cc4)nc3)CC2)CC1 (stereo partly drawn) [Compound 67]	< 500
C[C@@H](NC(=O)[C@H](Cc1ccc(-c2ncc(C3=CCCC(NC(=O)OC(C)(C)C)C3)cn2)cc1)NC(=O)c1ccc(C(C)(C)C)s1)C(=O)O (stereo partly drawn) [Compound 69]	2500 to 5000
CCC1CCC(C2CC=C(c3cnc(-c4ccc(C[C@H](NC(=O)c5ccc(C(C)(C)C)s5)C(=O)N[C@H](C)C(=O)O)cc4)nc3)CC2)CC1 (stereo partly drawn) [Compound 70]	< 500
CCCC1CCC(C2CC=C(c3cnc(-c4ccc(C[C@H](NC(=O)c5ccc(C(C)(C)C)s5)C(=O)NCCC(=O)O)cc4)nc3)CC2)CC1 (stereo partly drawn) [Compound 71]	< 500
CCCC1CCC(C2CC=C(c3cnc(-c4ccc(C[C@H](NC(=O)c5ccc(C(C)(C)C)s5)C(=O)N[C@@H](CCN)C(=O)O)cc4)nc3)CC2)CC1 (stereo partly drawn) [Compound 72]	2500 to 5000
CCCC1CCC(C2CC=C(c3cnc(-c4ccc(C[C@H](NC(=O)c5ccc(C(C)(C)C)s5)C(=O)N[C@@H](CO)C(=O)O)cc4)nc3)CC2)CC1 (stereo partly drawn) [Compound 73]	< 500
CCCC1CCC(C2CC=C(c3cnc(-c4ccc(C[C@H](NC(=O)c5ccc(C(C)(C)C)s5)C(=O)N[C@H](C(=O)O)[C@@H](C)O)cc4)nc3)CC2)CC1 (stereo partly drawn) [Compound 74]	< 500
CCCC1CCC(C2CC=C(c3cnc(-c4ccc(C[C@H](NC(=O)c5ccc(C(C)(C)C)s5)C(=O)N[C@H](C(=O)O)C(C)C)cc4)nc3)CC2)CC1 (stereo partly drawn) [Compound 75]	500 to 2500
CC(C)(C)c1ccc(C(=O)N[C@@H](Cc2ccc(-c3ncc(C4=CCC(C5CCCCC5)CC4)cn3)cc2)C(=O)N2CC(C(=O)O)C2)s1 (stereo partly drawn) [Compound 77]	< 500
CCCC1CCC(C2CC=C(c3cnc(-c4ccc(C[C@H](NC(=O)c5ccc(C(C)(C)C)s5)C(=O)N[C@H](Cc5cnc[nH]5)C(=O)O)cc4)nc3)CC2)CC1 (stereo partly drawn) [Compound 78]	500 to 2500
CCCC1CCC(C2CC=C(c3cnc(-c4ccc(C[C@H](NC(=O)c5ccc(C(C)(C)C)s5)C(=O)S(C)(=O)=O)cc4)nc3)CC2)CC1 (stereo partly drawn) [Compound 79]	< 500
CCCC1CCC(C2CC=C(c3cnc(-c4ccc(C[C@H](NC(=O)c5ccc(C(C)(C)C)s5)C(=O)N5C6CCC5C(C(=O)O)C6)cc4)nc3)CC2)CC1 (stereo partly drawn) [Compound 80]	500 to 2500
CCCC1CCC(C2CC=C(c3cnc(-c4ccc(C[C@@H](NC(=O)c5ccc(C(C)(C)C)s5)C(=O)N5CC(C(=O)O)C5)cc4)nc3)CC2)CC1 (stereo partly drawn) [Compound 81, 1-((2R)-2-(5-(tert-butyl)thiophene-2-carboxamido)-3-(4-(5-(4′-propyl-[1,1′-bi(cyclohexan)]-3-en-4-yl)pyrimidin-2-yl)phenyl)propanoyl) azetidine-3-carboxylic acid]	500 to 2500
CCO[C@H]1CC[C@@H](C2CC=C(c3cnc(-c4ccc(C[C@H](NC(=O)c5ccc(C(C)(C)C)s5)C(=O)N5CC(C(=O)O)C5)cc4)nc3)CC2)CC1 (stereo partly drawn) [Compound 83]	< 500
CCO[C@H]1CC[C@H](C2CC=C(c3cnc(-c4ccc(C[C@H](NC(=O)c5ccc(C(C)(C)C)s5)C(=O)N5CC(C(=O)O)C5)cc4)nc3)CC2)CC1 (stereo partly drawn) [Compound 84]	< 500

Source: patent US9474755B2, “GLP-1 receptor modulators” (Receptos, Inc., priority 2014, dated 2016)
